{
  "source": "paper PMC11649115",
  "about": "“In vitro safety evaluation of dopamine D3R antagonist, R-VK4-116, as a potential medication for the treatment of opioid use disorder” (PLOS ONE, 2024)",
  "key": {"CYP3A4": {"target": "CYP3A4 (Homo sapiens, UniProt P08684)", "sequence (P08684 2-503)": "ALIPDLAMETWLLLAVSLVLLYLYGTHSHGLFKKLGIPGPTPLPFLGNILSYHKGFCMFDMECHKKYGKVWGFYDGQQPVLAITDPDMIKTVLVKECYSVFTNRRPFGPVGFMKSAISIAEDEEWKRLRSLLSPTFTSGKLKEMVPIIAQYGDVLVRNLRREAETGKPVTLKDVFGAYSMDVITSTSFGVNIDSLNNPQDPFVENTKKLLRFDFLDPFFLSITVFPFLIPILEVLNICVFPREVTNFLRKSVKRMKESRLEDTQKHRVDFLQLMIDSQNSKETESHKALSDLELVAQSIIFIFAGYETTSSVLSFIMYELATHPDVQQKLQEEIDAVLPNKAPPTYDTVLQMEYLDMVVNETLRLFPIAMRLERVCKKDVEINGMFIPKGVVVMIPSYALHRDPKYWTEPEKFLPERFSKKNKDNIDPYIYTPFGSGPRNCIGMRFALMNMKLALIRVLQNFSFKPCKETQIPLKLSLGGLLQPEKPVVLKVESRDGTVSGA", "test": "in vitro", "details": "microsomes"}, "CYP2D6": {"target": "CYP2D6 (Homo sapiens, UniProt P10635)", "sequence (P10635 whole entry)": "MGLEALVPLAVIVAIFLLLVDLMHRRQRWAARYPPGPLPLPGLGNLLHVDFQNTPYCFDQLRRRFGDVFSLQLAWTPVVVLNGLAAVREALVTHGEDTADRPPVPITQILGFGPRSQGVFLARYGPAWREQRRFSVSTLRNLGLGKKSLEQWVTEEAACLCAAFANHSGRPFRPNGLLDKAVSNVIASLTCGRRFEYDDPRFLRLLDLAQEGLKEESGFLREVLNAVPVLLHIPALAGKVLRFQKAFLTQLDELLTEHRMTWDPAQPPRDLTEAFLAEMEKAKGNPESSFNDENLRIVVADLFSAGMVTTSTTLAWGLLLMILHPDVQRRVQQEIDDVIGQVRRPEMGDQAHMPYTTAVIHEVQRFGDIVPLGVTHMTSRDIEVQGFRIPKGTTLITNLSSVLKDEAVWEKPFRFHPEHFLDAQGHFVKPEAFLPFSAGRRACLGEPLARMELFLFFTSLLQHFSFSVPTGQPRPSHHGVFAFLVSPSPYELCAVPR", "test": "CYP inhibition in human liver microsomes", "details": "human liver microsomes"}, "[1]": {"test": "Metabolic stability in liver microsomes", "details": "human, pH 7.4"}, "[2]": {"test": "Metabolite identification in liver microsomes", "type": "in vitro ADME", "details": "10 μM R-VK4-116, 120 min", "method": "Reactions were stopped by removing 100 μl aliquots at 120 min and mixing with 200 μl of acetonitrile. Following brief vortexing and centrifugation, the supernatant was transferred to an HPLC vial fitted with a 300 μl glass insert for metabolite analysis using a Sciex 4000QTrap mass spectrometer."}, "HepG2 cells": {"system": "HepG2 cells", "test": "Phospholipidosis and steatosis, high content screening", "type": "cell-based", "parameters": "key to Cell count, Trend (↑↓) / Nuclear size, Trend (↑↓) / DNA structure, Trend (↑↓) / Phospholipidosis, Trend (↑↓) / Steatosis, Trend (↑↓): ↑: increasing trend of response; ↓: decreasing trend of response"}, "[3]": {"test": "Phospholipidosis and steatosis, high content screening", "type": "cell-based", "parameters": "key to Cell count, Trend (↑↓) / Nuclear size, Trend (↑↓) / DNA structure, Trend (↑↓) / Phospholipidosis, Trend (↑↓) / Steatosis, Trend (↑↓): ↑: increasing trend of response; ↓: decreasing trend of response", "details": "human, HepG2 cells"}, "P-gp": {"target": "T1, P-gp (Homo sapiens, UniProt P08183)", "T1 construct": "expressed in transfected cells; host or cells: MDCK-II cells", "T1 sequence (P08183 whole entry)": "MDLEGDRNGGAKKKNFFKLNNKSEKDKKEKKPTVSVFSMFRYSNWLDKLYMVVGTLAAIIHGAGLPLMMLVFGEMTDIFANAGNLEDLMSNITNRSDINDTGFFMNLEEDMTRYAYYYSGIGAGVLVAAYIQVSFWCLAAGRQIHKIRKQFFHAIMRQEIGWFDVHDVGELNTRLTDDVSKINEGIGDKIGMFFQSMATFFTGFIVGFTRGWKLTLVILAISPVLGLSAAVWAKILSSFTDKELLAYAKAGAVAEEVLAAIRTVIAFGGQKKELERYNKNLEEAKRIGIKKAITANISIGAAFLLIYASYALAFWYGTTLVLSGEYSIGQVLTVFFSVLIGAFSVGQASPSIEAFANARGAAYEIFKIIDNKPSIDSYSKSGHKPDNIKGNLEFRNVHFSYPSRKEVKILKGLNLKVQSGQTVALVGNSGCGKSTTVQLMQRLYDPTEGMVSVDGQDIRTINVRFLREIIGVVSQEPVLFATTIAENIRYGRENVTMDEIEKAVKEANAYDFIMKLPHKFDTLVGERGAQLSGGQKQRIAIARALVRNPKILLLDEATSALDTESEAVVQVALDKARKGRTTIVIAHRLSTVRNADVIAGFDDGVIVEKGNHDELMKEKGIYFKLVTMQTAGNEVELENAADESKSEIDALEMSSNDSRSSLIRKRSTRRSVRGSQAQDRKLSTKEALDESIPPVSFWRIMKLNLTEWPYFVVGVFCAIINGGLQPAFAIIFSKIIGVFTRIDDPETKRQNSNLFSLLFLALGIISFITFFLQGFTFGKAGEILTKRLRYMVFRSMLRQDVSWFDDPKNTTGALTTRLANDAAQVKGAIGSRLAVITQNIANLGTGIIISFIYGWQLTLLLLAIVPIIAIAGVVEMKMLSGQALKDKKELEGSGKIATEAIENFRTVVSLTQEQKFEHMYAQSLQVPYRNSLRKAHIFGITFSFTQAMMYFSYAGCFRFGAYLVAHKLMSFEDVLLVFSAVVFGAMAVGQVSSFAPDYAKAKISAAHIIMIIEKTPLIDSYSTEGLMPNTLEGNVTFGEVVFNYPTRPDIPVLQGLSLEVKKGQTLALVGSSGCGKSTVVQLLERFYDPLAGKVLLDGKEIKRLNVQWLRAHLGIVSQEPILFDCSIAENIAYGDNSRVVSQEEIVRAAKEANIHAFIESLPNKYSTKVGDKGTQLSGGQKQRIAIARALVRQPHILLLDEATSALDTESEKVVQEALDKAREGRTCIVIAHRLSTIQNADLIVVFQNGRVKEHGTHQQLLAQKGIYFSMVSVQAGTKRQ", "test": "Transporter mediated assay (substrate/inhibitor), MDCK-II cells", "type": "in vitro ADME", "details": "human", "protocol": "The MDCK-II cells were treated to express the transporter of interest.\nFor BCRP and P-gp, the apparent permeability Papp and Efflux Ratio (ER) were calculated [16]. Net basal (B) to apical (A) flux (B → A) of the substrate transport (pmol/min/cm^2) by BCRP or P-gp was calculated by subtracting A → B flux from B → A flux."}, "[4]": {"details": "CYP activity (% of Control) 3A4 (Midazolam)"}, "[5]": {"details": "CYP activity (% of Control) 3A4 (Testosterone)"}, "[6]": {"details": "heat-inactivated liver microsomes"}, "[7]": {"details": "MDCK-MDR1, P-gp, substrate test, 1 µM"}},
  "note": "Values joined by “and” are separate entries in the source; they are usually repeats but may differ in a detail not shown here. Equal values may be shown once. Read-outs that look alike come from different tables or passages of the source.",
  "data": [
    {"smiles": "CCc1cc(Cl)c(OC)c(N2CCN(CC(O)CCNC(=O)c3cc4ccccc4[nH]3)CC2)c1", "note": "(centres unmarked) [R-VK4-116, N-(4-(4-(3-chloro-5-ethyl-2-methoxyphenyl)piperazin-1-yl)-3-hydroxybutyl)-1H-indole-2-carboxamide]", "values": [
      {"measurement": "activity at 20 min, 0.1 µM", "setting": "CYP3A4; [4]", "value": "97.5 ± 3.9", "unit": "%"},
      {"measurement": "activity at 20 min, 0.3 µM", "setting": "CYP3A4; [4]", "value": "93.9 ± 2.4", "unit": "%"},
      {"measurement": "activity at 20 min, 1 µM", "setting": "CYP3A4; [4]", "value": "95.3 ± 0.9", "unit": "%"},
      {"measurement": "activity at 20 min, 3 µM", "setting": "CYP3A4; [4]", "value": "95.6 ± 4.2", "unit": "%"},
      {"measurement": "activity at 20 min, 10 µM", "setting": "CYP3A4; [4]", "value": "96.9 ± 2", "unit": "%"},
      {"measurement": "activity at 20 min, 30 µM", "setting": "CYP3A4; [4]", "value": "92.2 ± 0.7", "unit": "%"},
      {"measurement": "activity at 20 min, 60 µM", "setting": "CYP3A4; [4]", "value": "92.6 ± 1", "unit": "%"},
      {"measurement": "activity at 20 min, 100 µM", "setting": "CYP3A4; [4]", "value": "96.9 ± 3.2", "unit": "%"},
      {"measurement": "activity at 20 min, 0.1 µM", "setting": "CYP3A4; [5]", "value": "96.5 ± 3.6", "unit": "%"},
      {"measurement": "activity at 20 min, 0.3 µM", "setting": "CYP3A4; [5]", "value": "93.2 ± 3.8", "unit": "%"},
      {"measurement": "activity at 20 min, 1 µM", "setting": "CYP3A4; [5]", "value": "94.2 ± 2.4", "unit": "%"},
      {"measurement": "activity at 20 min, 3 µM", "setting": "CYP3A4; [5]", "value": "92.8 ± 4.8", "unit": "%"},
      {"measurement": "activity at 20 min, 10 µM", "setting": "CYP3A4; [5]", "value": "93.9 ± 2.1", "unit": "%"},
      {"measurement": "activity at 20 min, 30 µM", "setting": "CYP3A4; [5]", "value": "94.2 ± 1.5", "unit": "%"},
      {"measurement": "activity at 20 min, 60 µM", "setting": "CYP3A4; [5]", "value": "92.1 ± 1.1", "unit": "%"},
      {"measurement": "activity at 20 min, 100 µM", "setting": "CYP3A4; [5]", "value": "95.5 ± 3.7", "unit": "%"},
      {"measurement": "CYP2D6 inhibition", "setting": "CYP2D6; up to 100 μM", "value": "did not inhibit CYP significantly"},
      {"measurement": "activity at 20 min, 0.1 µM", "setting": "CYP2D6; human, probe bufuralol", "value": "92.6 ± 9", "unit": "%"},
      {"measurement": "activity at 20 min, 0.3 µM", "setting": "CYP2D6; human, probe bufuralol", "value": "86.1 ± 4", "unit": "%"},
      {"measurement": "activity at 20 min, 1 µM", "setting": "CYP2D6; human, probe bufuralol", "value": "84.3 ± 3.7", "unit": "%"},
      {"measurement": "activity at 20 min, 3 µM", "setting": "CYP2D6; human, probe bufuralol", "value": "92.1 ± 6.8", "unit": "%"},
      {"measurement": "activity at 20 min, 10 µM", "setting": "CYP2D6; human, probe bufuralol", "value": "94.7 ± 6.5", "unit": "%"},
      {"measurement": "activity at 20 min, 30 µM", "setting": "CYP2D6; human, probe bufuralol", "value": "83.1 ± 1.6", "unit": "%"},
      {"measurement": "activity at 20 min, 60 µM", "setting": "CYP2D6; human, probe bufuralol", "value": "84.5 ± 1.8", "unit": "%"},
      {"measurement": "activity at 20 min, 100 µM", "setting": "CYP2D6; human, probe bufuralol", "value": "95 ± 7.5", "unit": "%"},
      {"measurement": "remaining at 0 h, 1 μM", "setting": "[1]; [6]", "value": 100, "unit": "%"},
      {"measurement": "remaining at 0 h, 10 μM", "setting": "[1]; [6]", "value": 100, "unit": "%"},
      {"measurement": "remaining at 2 h, 1 μM", "setting": "[1]; [6]", "value": 96.7, "unit": "%"},
      {"measurement": "remaining at 2 h, 10 μM", "setting": "[1]; [6]", "value": 95.1, "unit": "%"},
      {"measurement": "remaining at 0 h, 1 μM", "setting": "[1]; liver microsomes", "value": 100, "unit": "%"},
      {"measurement": "remaining at 0 h, 10 μM", "setting": "[1]; liver microsomes", "value": 100, "unit": "%"},
      {"measurement": "remaining at 0.5 h, 1 μM", "setting": "[1]; liver microsomes", "value": 41.1, "unit": "%"},
      {"measurement": "remaining at 0.5 h, 10 μM", "setting": "[1]; liver microsomes", "value": 69.7, "unit": "%"},
      {"measurement": "remaining at 1 h, 1 μM", "setting": "[1]; liver microsomes", "value": 25.9, "unit": "%"},
      {"measurement": "remaining at 1 h, 10 μM", "setting": "[1]; liver microsomes", "value": 60.1, "unit": "%"},
      {"measurement": "remaining at 1.5 h, 1 μM", "setting": "[1]; liver microsomes", "value": 22.3, "unit": "%"},
      {"measurement": "remaining at 1.5 h, 10 μM", "setting": "[1]; liver microsomes", "value": 55.5, "unit": "%"},
      {"measurement": "remaining at 2 h, 1 μM", "setting": "[1]; liver microsomes", "value": 16.4, "unit": "%"},
      {"measurement": "remaining at 2 h, 10 μM", "setting": "[1]; liver microsomes", "value": 48.9, "unit": "%"},
      {"measurement": "% Area", "setting": "[2]; dog liver microsomes, MRM product ion 116.1", "value": 10.4, "unit": "%"},
      {"measurement": "% Area", "setting": "[2]; dog liver microsomes, MRM product ion 144.1", "value": 28.6, "unit": "%"},
      {"measurement": "% Area", "setting": "[2]; human liver microsomes, MRM product ion 116.1", "value": 62.4, "unit": "%"},
      {"measurement": "% Area", "setting": "[2]; human liver microsomes, MRM product ion 144.1", "value": 4.1, "unit": "%"},
      {"measurement": "% Area", "setting": "[2]; rat liver microsomes, MRM product ion 116.1", "value": 8.2, "unit": "%"},
      {"measurement": "% Area", "setting": "[2]; rat liver microsomes, MRM product ion 144.1", "value": 86.1, "unit": "%"},
      {"measurement": "Phospholipidosis, Trend (↑↓)", "setting": "HepG2 cells", "value": "↑"},
      {"measurement": "Steatosis, Trend (↑↓)", "setting": "HepG2 cells", "value": "↑"},
      {"measurement": "Steatosis, MEC", "setting": "HepG2 cells; (NS) = not statistically significant", "value": "14.2 μM and 14.2 (NS) μM"},
      {"measurement": "AC50", "setting": "[3]; # AC50 greater than the maximum surviving concentration, (NS) = not statistically significant, read-out: Steatosis, AC50", "value": "> 100", "unit": "µM"},
      {"measurement": "AC50", "setting": "[3]; read-out: Cell count, AC50", "value": "> 100", "unit": "µM"},
      {"measurement": "AC50", "setting": "[3]; read-out: DNA structure, AC50", "value": "> 100", "unit": "µM"},
      {"measurement": "AC50", "setting": "[3]; read-out: Nuclear size, AC50", "value": "> 100", "unit": "µM"},
      {"measurement": "AC50", "setting": "[3]; read-out: Phospholipidosis, AC50", "value": 10.7, "unit": "µM"},
      {"measurement": "Papp A→B at 1 µM", "setting": "P-gp; [7]", "value": "< 0.2", "unit": "×10⁻⁶ cm/s"},
      {"measurement": "Papp B→A at 1 µM", "setting": "P-gp; [7]", "value": "< 0.1", "unit": "×10⁻⁶ cm/s"},
      {"measurement": "inhibition at 10 µM", "setting": "P-gp; probe quinidine 0.1 μM", "value": "56.5 ± 6.17", "unit": "%"}
    ]}
  ]
}
